Experiment: xn = mol fraction of the nth substance listed
Conditions: 101 kPa, Liquid; for speed of sound: Sing-around technique in a fixed-path interferometer; for mass density: Vibrating tube method

COCCOCCO [2-(2-methoxyethoxy)ethanol] + CCCCn1cc[n+](C)c1.F[B-](F)(F)F
Conditions	mass density [kg/m3]	speed of sound [m/s]
288.15 K, x2 = 0	1024.6	1451
288.15 K, x2 = 0.0308	1035.12	1461
288.15 K, x2 = 0.1053	1059.04	1490
288.15 K, x2 = 0.2065	1086.98	1514
288.15 K, x2 = 0.3137	1110.84	1533
288.15 K, x2 = 0.4002	1126.77	1544
288.15 K, x2 = 0.5035	1143.12	1559
288.15 K, x2 = 0.6083	1158.14	1568
288.15 K, x2 = 0.7023	1170.82	1575
288.15 K, x2 = 0.8291	1187.12	1580
288.15 K, x2 = 0.9381	1199.91	1583
293.15 K, x2 = 0	1020.2	1434
293.15 K, x2 = 0.0308	1030.69	1445
293.15 K, x2 = 0.1053	1054.73	1473
293.15 K, x2 = 0.2065	1082.85	1499
293.15 K, x2 = 0.3137	1106.71	1517
293.15 K, x2 = 0.4002	1122.56	1531
293.15 K, x2 = 0.5035	1138.99	1546
293.15 K, x2 = 0.6083	1154.16	1555
293.15 K, x2 = 0.7023	1167.07	1563
293.15 K, x2 = 0.8291	1183.25	1572
293.15 K, x2 = 0.9381	1196.01	1574
298.15 K, x2 = 0	1015.79	1416
298.15 K, x2 = 0.0308	1026.51	1428
298.15 K, x2 = 0.1053	1050.61	1457
298.15 K, x2 = 0.2065	1078.49	1483
298.15 K, x2 = 0.3137	1102.51	1503
298.15 K, x2 = 0.4002	1118.58	1518
298.15 K, x2 = 0.5035	1135.22	1533
298.15 K, x2 = 0.6083	1150.52	1543
298.15 K, x2 = 0.7023	1163.46	1551
298.15 K, x2 = 0.8291	1180	1560
298.15 K, x2 = 0.9381	1192.92	1563
303.15 K, x2 = 0	1011.36	1399
303.15 K, x2 = 0.0308	1022.02	1411
303.15 K, x2 = 0.1053	1046.36	1441
303.15 K, x2 = 0.2065	1074.58	1468
303.15 K, x2 = 0.3137	1098.6	1489
303.15 K, x2 = 0.4002	1114.55	1504
303.15 K, x2 = 0.5035	1131.18	1519
303.15 K, x2 = 0.6083	1146.73	1530
303.15 K, x2 = 0.7023	1160.08	1539
303.15 K, x2 = 0.8291	1176.92	1546
303.15 K, x2 = 0.9381	1189.62	1552
308.15 K, x2 = 0	1006.92	1382
308.15 K, x2 = 0.0308	1017.5	1395
308.15 K, x2 = 0.1053	1042	1425
308.15 K, x2 = 0.2065	1070.56	1453
308.15 K, x2 = 0.3137	1094.68	1474
308.15 K, x2 = 0.4002	1110.65	1490
308.15 K, x2 = 0.5035	1127.3	1506
308.15 K, x2 = 0.6083	1142.95	1517
308.15 K, x2 = 0.7023	1156.36	1526
308.15 K, x2 = 0.8291	1173.24	1534
308.15 K, x2 = 0.9381	1185.91	1540
313.15 K, x2 = 0	1002.47	1366
313.15 K, x2 = 0.0308	1013.14	1378
313.15 K, x2 = 0.1053	1037.68	1409
313.15 K, x2 = 0.2065	1066.49	1437
313.15 K, x2 = 0.3137	1090.91	1460
313.15 K, x2 = 0.4002	1107.01	1477
313.15 K, x2 = 0.5035	1123.64	1493
313.15 K, x2 = 0.6083	1139.19	1505
313.15 K, x2 = 0.7023	1152.49	1514
313.15 K, x2 = 0.8291	1169.38	1523
313.15 K, x2 = 0.9381	1182.2	1529
318.15 K, x2 = 0	998.009	1349
318.15 K, x2 = 0.0308	1008.9	1362
318.15 K, x2 = 0.1053	1033.44	1393
318.15 K, x2 = 0.2065	1062	1422
318.15 K, x2 = 0.3137	1086.38	1447
318.15 K, x2 = 0.4002	1102.75	1464
318.15 K, x2 = 0.5035	1119.79	1480
318.15 K, x2 = 0.6083	1135.51	1494
318.15 K, x2 = 0.7023	1148.84	1503
318.15 K, x2 = 0.8291	1165.68	1512
318.15 K, x2 = 0.9381	1178.57	1519

COCCO [2-methoxyethan-1-ol] + CCCCn1cc[n+](C)c1.F[B-](F)(F)F
Conditions	mass density [kg/m3]	speed of sound [m/s]
288.15 K, x2 = 0	969.794	1380
288.15 K, x2 = 0.0509	1000.6	1411
288.15 K, x2 = 0.1092	1030.06	1438
288.15 K, x2 = 0.2052	1068.45	1474
288.15 K, x2 = 0.3071	1099.91	1500
288.15 K, x2 = 0.4025	1123.36	1521
288.15 K, x2 = 0.5116	1145.2	1539
288.15 K, x2 = 0.6257	1164.11	1553
288.15 K, x2 = 0.7153	1176.88	1565
288.15 K, x2 = 0.8088	1188.61	1574
288.15 K, x2 = 0.9155	1199.86	1582
293.15 K, x2 = 0	965.063	1367
293.15 K, x2 = 0.0509	996.158	1394
293.15 K, x2 = 0.1092	1025.74	1422
293.15 K, x2 = 0.2052	1064.33	1460
293.15 K, x2 = 0.3071	1095.87	1486
293.15 K, x2 = 0.4025	1119.42	1508
293.15 K, x2 = 0.5116	1141.38	1527
293.15 K, x2 = 0.6257	1160.35	1542
293.15 K, x2 = 0.7153	1173.17	1554
293.15 K, x2 = 0.8088	1184.96	1563
293.15 K, x2 = 0.9155	1196.25	1571
298.15 K, x2 = 0	960.447	1351
298.15 K, x2 = 0.0509	991.715	1378
298.15 K, x2 = 0.1092	1021.41	1406
298.15 K, x2 = 0.2052	1060.08	1446
298.15 K, x2 = 0.3071	1091.76	1472
298.15 K, x2 = 0.4025	1115.42	1494
298.15 K, x2 = 0.5116	1137.55	1514
298.15 K, x2 = 0.6257	1156.59	1530
298.15 K, x2 = 0.7153	1169.47	1542
298.15 K, x2 = 0.8088	1181.31	1551
298.15 K, x2 = 0.9155	1192.64	1560
303.15 K, x2 = 0	955.825	1337
303.15 K, x2 = 0.0509	987.145	1361
303.15 K, x2 = 0.1092	1017.07	1391
303.15 K, x2 = 0.2052	1056.15	1431
303.15 K, x2 = 0.3071	1087.96	1457
303.15 K, x2 = 0.4025	1111.59	1480
303.15 K, x2 = 0.5116	1133.65	1501
303.15 K, x2 = 0.6257	1152.84	1517
303.15 K, x2 = 0.7153	1165.77	1530
303.15 K, x2 = 0.8088	1177.66	1539
303.15 K, x2 = 0.9155	1189.04	1548
308.15 K, x2 = 0	951.214	1321
308.15 K, x2 = 0.0509	982.765	1344
308.15 K, x2 = 0.1092	1012.72	1375
308.15 K, x2 = 0.2052	1051.85	1415
308.15 K, x2 = 0.3071	1083.79	1443
308.15 K, x2 = 0.4025	1107.66	1467
308.15 K, x2 = 0.5116	1129.9	1488
308.15 K, x2 = 0.6257	1149.1	1505
308.15 K, x2 = 0.7153	1162.09	1517
308.15 K, x2 = 0.8088	1174.01	1526
308.15 K, x2 = 0.9155	1185.43	1536
313.15 K, x2 = 0	946.562	1304
313.15 K, x2 = 0.0509	978.381	1328
313.15 K, x2 = 0.1092	1008.49	1359
313.15 K, x2 = 0.2052	1047.68	1400
313.15 K, x2 = 0.3071	1079.71	1430
313.15 K, x2 = 0.4025	1103.68	1453
313.15 K, x2 = 0.5116	1126.04	1475
313.15 K, x2 = 0.6257	1145.37	1492
313.15 K, x2 = 0.7153	1158.41	1505
313.15 K, x2 = 0.8088	1170.38	1514
313.15 K, x2 = 0.9155	1181.84	1525
318.15 K, x2 = 0	941.864	1287
318.15 K, x2 = 0.0509	973.683	1311
318.15 K, x2 = 0.1092	1004.01	1343
318.15 K, x2 = 0.2052	1043.46	1383
318.15 K, x2 = 0.3071	1075.71	1415
318.15 K, x2 = 0.4025	1099.79	1440
318.15 K, x2 = 0.5116	1122.25	1461
318.15 K, x2 = 0.6257	1141.63	1479
318.15 K, x2 = 0.7153	1154.74	1492
318.15 K, x2 = 0.8088	1166.72	1502
318.15 K, x2 = 0.9155	1178.23	1513
